Test results published in publication doi:10.1101/2023.11.24.568596v1 (biorxiv, 2023).

Columns and labels:
Settings in all cases: binder
CK2a2 = CK2a2 (Homo sapiens, UniProt P19784)
BRD4 = BRD4 (Homo sapiens, UniProt O60885)
CDKL1 = CDKL1 (Homo sapiens, UniProt Q00532)
PIM1 = PIM1 (Homo sapiens, UniProt P11309)
MRCKa = MRCKa (Homo sapiens, UniProt Q5VT25)
CaMK1d = CaMK1d (Homo sapiens, UniProt Q8IU85)
AurA = target: T1, AurA (Homo sapiens, UniProt O14965)
T1 sequence (O14965 1-403): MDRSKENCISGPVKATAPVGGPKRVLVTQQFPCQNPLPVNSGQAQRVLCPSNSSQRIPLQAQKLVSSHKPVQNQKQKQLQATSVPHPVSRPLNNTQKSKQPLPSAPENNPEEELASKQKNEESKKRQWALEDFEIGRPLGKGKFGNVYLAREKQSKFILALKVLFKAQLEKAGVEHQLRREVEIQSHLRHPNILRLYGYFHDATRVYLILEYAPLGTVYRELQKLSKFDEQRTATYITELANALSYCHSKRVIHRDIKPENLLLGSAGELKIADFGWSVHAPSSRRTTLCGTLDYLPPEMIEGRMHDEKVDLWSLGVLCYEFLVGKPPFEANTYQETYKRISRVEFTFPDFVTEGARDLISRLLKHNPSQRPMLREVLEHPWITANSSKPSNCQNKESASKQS

OSR1 = OSR1 (Homo sapiens, UniProt O95747)
OSR1, sequence (O95747 whole entry): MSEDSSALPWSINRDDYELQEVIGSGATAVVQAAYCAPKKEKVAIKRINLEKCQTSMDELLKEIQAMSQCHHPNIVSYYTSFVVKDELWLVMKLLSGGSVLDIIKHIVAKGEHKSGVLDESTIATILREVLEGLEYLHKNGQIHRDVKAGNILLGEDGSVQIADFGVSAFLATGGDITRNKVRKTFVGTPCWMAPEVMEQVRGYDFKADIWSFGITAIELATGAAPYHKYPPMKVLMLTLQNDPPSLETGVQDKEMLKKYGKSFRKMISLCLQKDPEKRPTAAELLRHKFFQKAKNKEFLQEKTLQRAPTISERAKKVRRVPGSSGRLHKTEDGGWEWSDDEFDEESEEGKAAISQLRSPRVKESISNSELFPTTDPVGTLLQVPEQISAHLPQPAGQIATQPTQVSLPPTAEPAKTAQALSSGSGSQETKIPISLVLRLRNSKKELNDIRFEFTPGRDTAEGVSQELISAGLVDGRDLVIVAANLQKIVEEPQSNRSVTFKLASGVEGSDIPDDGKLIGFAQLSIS

DCAMKL1 = target: T2, DCAMKL1 (Homo sapiens, UniProt O15075)
T2 sequence (O15075 1-740): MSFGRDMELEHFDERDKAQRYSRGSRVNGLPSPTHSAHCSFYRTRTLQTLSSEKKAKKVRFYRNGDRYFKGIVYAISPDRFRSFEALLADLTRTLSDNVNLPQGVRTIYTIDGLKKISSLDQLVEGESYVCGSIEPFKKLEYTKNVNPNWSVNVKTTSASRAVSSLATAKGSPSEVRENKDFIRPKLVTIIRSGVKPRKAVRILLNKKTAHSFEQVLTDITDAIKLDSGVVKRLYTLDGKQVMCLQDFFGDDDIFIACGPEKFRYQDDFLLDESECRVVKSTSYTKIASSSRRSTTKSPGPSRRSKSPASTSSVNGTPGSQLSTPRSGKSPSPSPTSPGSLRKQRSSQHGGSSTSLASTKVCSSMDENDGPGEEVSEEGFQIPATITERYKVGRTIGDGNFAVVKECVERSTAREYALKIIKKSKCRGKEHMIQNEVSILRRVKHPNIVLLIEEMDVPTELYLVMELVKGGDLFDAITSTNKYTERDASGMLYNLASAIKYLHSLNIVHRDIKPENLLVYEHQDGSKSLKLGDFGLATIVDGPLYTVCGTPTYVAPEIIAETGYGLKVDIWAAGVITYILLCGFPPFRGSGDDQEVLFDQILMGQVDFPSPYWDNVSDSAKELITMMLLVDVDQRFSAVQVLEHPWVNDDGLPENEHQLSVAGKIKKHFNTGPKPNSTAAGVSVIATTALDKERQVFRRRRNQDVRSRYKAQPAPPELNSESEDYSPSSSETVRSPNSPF

DAPK3 = DAPK3 (Homo sapiens, UniProt O43293)
DAPK3, sequence (O43293 whole entry): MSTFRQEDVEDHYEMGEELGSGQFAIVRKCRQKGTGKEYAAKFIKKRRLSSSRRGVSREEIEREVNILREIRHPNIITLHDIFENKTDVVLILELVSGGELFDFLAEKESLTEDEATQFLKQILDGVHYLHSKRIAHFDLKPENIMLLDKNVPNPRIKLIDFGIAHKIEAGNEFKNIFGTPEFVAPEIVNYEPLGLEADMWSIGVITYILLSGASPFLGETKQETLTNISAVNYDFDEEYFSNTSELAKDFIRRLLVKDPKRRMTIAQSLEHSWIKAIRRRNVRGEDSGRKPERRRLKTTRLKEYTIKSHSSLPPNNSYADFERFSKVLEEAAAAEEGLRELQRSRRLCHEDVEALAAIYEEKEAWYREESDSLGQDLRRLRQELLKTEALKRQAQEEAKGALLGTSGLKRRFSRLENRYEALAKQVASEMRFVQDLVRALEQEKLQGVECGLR

CASK = target: T3, CASK (Homo sapiens, UniProt O14936)
T3 sequence (O14936 1-926): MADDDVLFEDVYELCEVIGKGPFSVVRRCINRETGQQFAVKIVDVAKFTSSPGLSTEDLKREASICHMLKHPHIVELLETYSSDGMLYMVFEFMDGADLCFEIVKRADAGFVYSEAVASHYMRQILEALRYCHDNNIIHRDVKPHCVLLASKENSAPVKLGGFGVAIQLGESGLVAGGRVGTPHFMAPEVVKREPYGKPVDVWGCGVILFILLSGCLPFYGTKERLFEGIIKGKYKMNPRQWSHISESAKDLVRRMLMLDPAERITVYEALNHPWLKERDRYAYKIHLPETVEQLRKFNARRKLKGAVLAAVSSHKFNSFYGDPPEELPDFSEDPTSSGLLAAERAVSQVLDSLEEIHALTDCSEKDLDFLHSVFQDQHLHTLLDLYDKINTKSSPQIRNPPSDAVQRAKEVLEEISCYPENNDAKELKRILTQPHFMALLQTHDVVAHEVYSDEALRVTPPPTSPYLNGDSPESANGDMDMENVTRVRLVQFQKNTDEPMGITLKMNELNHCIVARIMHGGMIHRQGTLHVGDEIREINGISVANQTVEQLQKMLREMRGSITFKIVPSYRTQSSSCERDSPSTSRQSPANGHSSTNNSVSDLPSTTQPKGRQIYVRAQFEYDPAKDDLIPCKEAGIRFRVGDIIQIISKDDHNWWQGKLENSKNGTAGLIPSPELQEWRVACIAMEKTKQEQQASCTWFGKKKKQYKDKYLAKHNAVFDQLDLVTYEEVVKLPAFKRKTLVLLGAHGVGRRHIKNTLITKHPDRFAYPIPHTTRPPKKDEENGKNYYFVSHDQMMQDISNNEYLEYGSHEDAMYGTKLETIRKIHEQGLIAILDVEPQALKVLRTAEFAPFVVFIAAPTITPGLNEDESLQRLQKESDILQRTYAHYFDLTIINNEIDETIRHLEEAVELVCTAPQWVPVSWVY

CDKL1, sequence (Q00532 whole entry): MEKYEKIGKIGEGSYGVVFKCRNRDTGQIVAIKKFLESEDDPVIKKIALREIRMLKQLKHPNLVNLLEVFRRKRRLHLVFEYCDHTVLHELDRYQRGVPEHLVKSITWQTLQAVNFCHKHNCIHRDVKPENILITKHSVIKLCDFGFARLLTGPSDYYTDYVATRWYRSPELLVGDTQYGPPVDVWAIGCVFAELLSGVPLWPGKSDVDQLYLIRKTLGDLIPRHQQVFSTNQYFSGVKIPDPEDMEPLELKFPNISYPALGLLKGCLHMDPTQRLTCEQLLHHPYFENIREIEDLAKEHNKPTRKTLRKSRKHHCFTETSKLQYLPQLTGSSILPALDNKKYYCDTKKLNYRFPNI
CK2a2, sequence (P19784 whole entry): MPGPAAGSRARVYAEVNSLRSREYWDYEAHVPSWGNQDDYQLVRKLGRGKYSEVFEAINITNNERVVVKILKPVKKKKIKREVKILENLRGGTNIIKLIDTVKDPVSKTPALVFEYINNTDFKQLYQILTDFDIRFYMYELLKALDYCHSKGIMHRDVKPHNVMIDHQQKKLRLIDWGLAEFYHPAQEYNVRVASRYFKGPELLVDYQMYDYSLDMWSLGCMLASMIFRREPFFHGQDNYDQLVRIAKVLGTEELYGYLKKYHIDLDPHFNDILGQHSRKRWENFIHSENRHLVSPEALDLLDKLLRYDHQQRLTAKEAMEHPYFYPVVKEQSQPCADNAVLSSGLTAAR
PIM1, sequence (P11309 whole entry): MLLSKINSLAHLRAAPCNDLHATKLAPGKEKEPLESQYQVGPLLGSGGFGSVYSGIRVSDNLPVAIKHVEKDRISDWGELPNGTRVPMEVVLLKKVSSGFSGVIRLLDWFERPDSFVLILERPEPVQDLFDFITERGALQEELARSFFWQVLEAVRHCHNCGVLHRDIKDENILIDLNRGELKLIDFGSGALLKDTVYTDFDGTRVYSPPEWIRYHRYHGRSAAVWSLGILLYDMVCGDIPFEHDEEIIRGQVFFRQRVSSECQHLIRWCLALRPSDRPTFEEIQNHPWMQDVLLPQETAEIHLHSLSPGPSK
MRCKa, sequence (Q5VT25 whole entry): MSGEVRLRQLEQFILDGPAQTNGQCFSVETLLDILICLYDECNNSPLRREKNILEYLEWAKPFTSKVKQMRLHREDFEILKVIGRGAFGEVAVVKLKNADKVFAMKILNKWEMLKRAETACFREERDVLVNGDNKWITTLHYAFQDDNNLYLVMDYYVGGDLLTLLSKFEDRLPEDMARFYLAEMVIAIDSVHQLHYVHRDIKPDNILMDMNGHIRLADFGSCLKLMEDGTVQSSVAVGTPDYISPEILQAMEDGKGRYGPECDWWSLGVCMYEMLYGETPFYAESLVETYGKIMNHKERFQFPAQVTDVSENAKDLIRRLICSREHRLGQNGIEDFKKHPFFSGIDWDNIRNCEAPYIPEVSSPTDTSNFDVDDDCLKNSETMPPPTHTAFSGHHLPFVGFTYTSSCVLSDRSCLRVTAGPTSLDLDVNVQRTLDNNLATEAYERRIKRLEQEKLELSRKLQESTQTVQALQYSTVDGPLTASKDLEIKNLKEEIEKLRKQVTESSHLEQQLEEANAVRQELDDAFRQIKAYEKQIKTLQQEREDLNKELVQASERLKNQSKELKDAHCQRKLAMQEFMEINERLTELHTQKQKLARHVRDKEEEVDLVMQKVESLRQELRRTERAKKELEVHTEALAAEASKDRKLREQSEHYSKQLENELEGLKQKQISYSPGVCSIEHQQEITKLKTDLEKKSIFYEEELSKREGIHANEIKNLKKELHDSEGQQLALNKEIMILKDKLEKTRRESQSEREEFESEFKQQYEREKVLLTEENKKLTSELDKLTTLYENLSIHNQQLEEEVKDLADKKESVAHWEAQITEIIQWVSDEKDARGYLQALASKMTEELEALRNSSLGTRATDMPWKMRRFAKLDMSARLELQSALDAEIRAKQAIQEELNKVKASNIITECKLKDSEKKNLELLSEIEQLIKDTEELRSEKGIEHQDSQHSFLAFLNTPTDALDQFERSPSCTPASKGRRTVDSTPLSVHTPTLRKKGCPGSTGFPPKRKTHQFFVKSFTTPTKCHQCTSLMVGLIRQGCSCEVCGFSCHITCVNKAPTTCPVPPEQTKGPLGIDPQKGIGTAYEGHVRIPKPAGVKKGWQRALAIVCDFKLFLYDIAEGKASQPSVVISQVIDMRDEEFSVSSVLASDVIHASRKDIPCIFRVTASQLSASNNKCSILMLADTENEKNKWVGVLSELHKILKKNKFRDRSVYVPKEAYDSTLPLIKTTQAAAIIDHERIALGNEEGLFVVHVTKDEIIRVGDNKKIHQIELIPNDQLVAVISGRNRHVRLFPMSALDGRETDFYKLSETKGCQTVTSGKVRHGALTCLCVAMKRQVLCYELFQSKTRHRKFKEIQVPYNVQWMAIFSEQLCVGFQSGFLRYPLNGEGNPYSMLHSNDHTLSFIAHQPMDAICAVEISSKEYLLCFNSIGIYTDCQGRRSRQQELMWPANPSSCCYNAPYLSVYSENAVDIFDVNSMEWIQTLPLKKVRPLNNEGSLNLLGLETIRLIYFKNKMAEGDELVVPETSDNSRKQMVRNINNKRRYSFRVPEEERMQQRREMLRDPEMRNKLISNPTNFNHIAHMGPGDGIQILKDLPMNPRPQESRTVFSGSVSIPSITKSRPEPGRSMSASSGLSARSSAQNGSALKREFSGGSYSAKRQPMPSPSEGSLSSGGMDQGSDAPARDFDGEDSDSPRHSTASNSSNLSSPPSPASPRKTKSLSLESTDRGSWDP
CaMK1d, sequence (Q8IU85 whole entry): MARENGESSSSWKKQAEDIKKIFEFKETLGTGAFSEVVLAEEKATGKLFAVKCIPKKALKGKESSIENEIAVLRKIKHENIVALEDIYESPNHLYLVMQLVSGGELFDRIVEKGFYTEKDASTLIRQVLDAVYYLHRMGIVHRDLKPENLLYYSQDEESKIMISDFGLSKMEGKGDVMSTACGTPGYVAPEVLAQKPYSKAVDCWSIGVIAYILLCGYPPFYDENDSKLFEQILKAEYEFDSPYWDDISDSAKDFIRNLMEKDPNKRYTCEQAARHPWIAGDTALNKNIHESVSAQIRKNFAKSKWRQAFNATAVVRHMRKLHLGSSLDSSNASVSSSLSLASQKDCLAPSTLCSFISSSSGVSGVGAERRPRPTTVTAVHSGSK

With `Cc1cccc(-c2ccc(-c3cc4cnc(NCCCN5CCCC5=O)nc4n(CCCCN)c3=O)c(Cl)c2)n1` [compound 27, MR30] the “ΔTm MR30 (27)” value (CK2a2) was -6.3 °C, the “ΔTm MR30 (27)” value (BRD4) was -3.9 °C and the “ΔTm MR30 (27)” value (CDKL1) was 0.9 °C. For the same molecule, the “ΔTm MR30 (27)” value (PIM1) was -0.5 °C, the “ΔTm MR30 (27)” value (MRCKa) was -0.2 °C and the “ΔTm MR30 (27)” value (CaMK1d) was 2.4 °C. The “ΔTm MR30 (27)” value (AurA) was -0.3 °C, the “ΔTm MR30 (27)” value (OSR1) was -1.1 °C and the “ΔTm MR30 (27)” value (DCAMKL1) was -1.8 °C. For the same molecule, the “ΔTm MR30 (27)” value (DAPK3) was 0.6 °C and the “ΔTm MR30 (27)” value (CASK) was -0.3 °C.

For `Cc1cccc(-c2ccc(-c3cc4cnc(Nc5cc(C(F)(F)F)ccc5C)nc4n(CCCCN)c3=O)c(Cl)c2)n1` [compound 28, 8-(4-Aminobutyl)-6-(2-chloro-4-(6-methylpyridin-2-yl)phenyl)-2-((2-methyl-5-(trifluoromethyl)phenyl)amino)pyrido[2,3-d]pyrimidin-7(8H)-one], the “ΔTm 28” value (CK2a2) was -4.2 °C, the “ΔTm 28” value (BRD4) was -3.7 °C and the “ΔTm 28” value (CDKL1) was 0.7 °C. The “ΔTm 28” value (PIM1) was 0.5 °C, the “ΔTm 28” value (MRCKa) was -1.0 °C and the “ΔTm 28” value (CaMK1d) was 4.8 °C. For the same molecule, the “ΔTm 28” value (AurA) was 6.5 °C, the “ΔTm 28” value (OSR1) was 0.1 °C and the “ΔTm 28” value (DCAMKL1) was 0.9 °C. For the same molecule, the “ΔTm 28” value (DAPK3) was 1.0 °C and the “ΔTm 28” value (CASK) was 0.0 °C.

`Cc1cccc(-c2ccc(-c3cc4cnc(NCCCN5CCNCC5)nc4n(CCCCN)c3=O)c(Cl)c2)n1` [compound 29, 8-(4-Aminobutyl)-6-(2-chloro-4-(6-methylpyridin-2-yl)phenyl)-2-((3-(piperazin-1-yl)propyl)amino)pyrido[2,3-d]pyrimidin-7(8H)-one] was tested, and the “ΔTm 29” value (CK2a2) was -1.6 °C, the “ΔTm 29” value (BRD4) was -2.2 °C and the “ΔTm 29” value (CDKL1) was 0.5 °C. For the same molecule, the “ΔTm 29” value (PIM1) was 0.6 °C, the “ΔTm 29” value (MRCKa) was -0.3 °C and the “ΔTm 29” value (CaMK1d) was 3.7 °C. For the same molecule, the “ΔTm 29” value (AurA) was -2.1 °C, the “ΔTm 29” value (OSR1) was 0.3 °C and the “ΔTm 29” value (DCAMKL1) was -1.7 °C. For the same molecule, the “ΔTm 29” value (DAPK3) was 0.0 °C and the “ΔTm 29” value (CASK) was -0.5 °C.

`Cc1cccc(-c2ccc(-c3cc4cnc(Nc5ccc(CCCO)cc5)nc4n(CCCCN)c3=O)c(Cl)c2)n1` [compound 30, 8-(4-Aminobutyl)-6-(2-chloro-4-(6-methylpyridin-2-yl)phenyl)-2-((4-(3-hydroxypropyl)phenyl)amino)pyrido[2,3-d]pyrimidin-7(8H)-one] was tested, and the “ΔTm 30” value (CK2a2) was -1.8 °C, the “ΔTm 30” value (BRD4) was -2.4 °C and the “ΔTm 30” value (CDKL1) was 1.6 °C. The “ΔTm 30” value (PIM1) was -0.4 °C, the “ΔTm 30” value (MRCKa) was 4.4 °C and the “ΔTm 30” value (CaMK1d) was 6.8 °C. For the same molecule, the “ΔTm 30” value (AurA) was 8.6 °C, the “ΔTm 30” value (OSR1) was 2.3 °C and the “ΔTm 30” value (DCAMKL1) was 2.0 °C. The “ΔTm 30” value (DAPK3) was 2.9 °C and the “ΔTm 30” value (CASK) was -0.5 °C.

In the case of `Cc1cccc(-c2ccc(-c3cc4cnc(Nc5ccc(O)cc5)nc4n(CCCCN)c3=O)c(Cl)c2)n1` [compound 31, 8-(4-Aminobutyl)-6-(2-chloro-4-(6-methylpyridin-2-yl)phenyl)-2-((4-hydroxyphenyl)amino) pyrido[2,3-d]pyrimidin-7(8H)-one], the “ΔTm 31” value (CK2a2) is reported as -0.9 °C, the “ΔTm 31” value (BRD4) is reported as -1.6 °C and the “ΔTm 31” value (CDKL1) is reported as 2.1 °C. The “ΔTm 31” value (PIM1) was 3.7 °C, the “ΔTm 31” value (MRCKa) was 3.3 °C and the “ΔTm 31” value (CaMK1d) was 5.6 °C. The “ΔTm 31” value (AurA) was 4.4 °C, the “ΔTm 31” value (OSR1) was 3.1 °C and the “ΔTm 31” value (DCAMKL1) was 1.1 °C. The “ΔTm 31” value (DAPK3) was 2.0 °C and the “ΔTm 31” value (CASK) was -0.2 °C.

`Cc1cccc(-c2ccc(-c3cc4cnc(Nc5ccc(C)c(O)c5)nc4n(CCCCN)c3=O)c(Cl)c2)n1` [compound 32, 8-(4-Aminobutyl)-6-(2-chloro-4-(6-methylpyridin-2-yl)phenyl)-2-((3-hydroxy-4-methylphenyl)amino)pyrido[2,3-d]pyrimidin-7(8H)-one] was tested, and the “ΔTm 32” value (CK2a2) was -1.6 °C, the “ΔTm 32” value (BRD4) was -2.7 °C and the “ΔTm 32” value (CDKL1) was 1.9 °C. The “ΔTm 32” value (PIM1) was 1.2 °C, the “ΔTm 32” value (MRCKa) was 4.0 °C and the “ΔTm 32” value (CaMK1d) was 6.0 °C. The “ΔTm 32” value (AurA) was 5.9 °C, the “ΔTm 32” value (OSR1) was 3.1 °C and the “ΔTm 32” value (DCAMKL1) was 1.4 °C. The “ΔTm 32” value (DAPK3) was 2.6 °C and the “ΔTm 32” value (CASK) was 0.0 °C.
